What all share (experiment): relative viability (nuclei count vs DMSO), 5 days (fraction); higher = more cells survive
Compound in the test “Metformin + Lapatinib”: CN(C)C(=N)NC(=N)N [Metformin] + CS(=O)(=O)CCNCc1ccc(-c2ccc3ncnc(Nc4ccc(OCc5cccc(F)c5)c(Cl)c4)c3c2)o1 [Lapatinib] (partner 2 µM)
The method in brief: (§1)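 Lung cancer cell lines in 1536-well plates got either a single drug or a fixed anchor-drug dose together with five library-drug doses (not always all listed) in √10 steps, by pin tool, on the day after seeding. Nuclei were counted after 5 days, and relative viability is the treated-to-vehicle ratio of nuclei counts. Values are medians of duplicate plates.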

Compound in the test “Apatinib + Palbociclib”: N#CC1(c2ccc(NC(=O)c3cccnc3NCc3ccncc3)cc2)CCCC1 [Apatinib] + CC(=O)c1c(C)c2cnc(Nc3ccc(N4CCNCC4)cn3)nc2n(C2CCCC2)c1=O [Palbociclib] (partner 0.5 µM)
The gist of the method:
as §1

Compound in the test “Apatinib + Luminespib”: N#CC1(c2ccc(NC(=O)c3cccnc3NCc3ccncc3)cc2)CCCC1 [Apatinib] + CCNC(=O)c1noc(-c2cc(C(C)C)c(O)cc2O)c1-c1ccc(CN2CCOCC2)cc1 [Luminespib] (partner 0.01 µM)
The method in brief:
as §1

Compound in the test “Apatinib + Phenformin”: N#CC1(c2ccc(NC(=O)c3cccnc3NCc3ccncc3)cc2)CCCC1 [Apatinib] + N=C(N)NC(=N)NCCc1ccccc1 [Phenformin] (partner 250 µM)
The method in brief: as §1

In the supplement of paper PMC10307832 one finds relative viability data, which are given here for seven cell lines.

Turning to NCI-H661, the relative viability with Metformin + Lapatinib (first compound 10 µM) came out at 0.58; with Metformin + Lapatinib (first compound 31.62 µM) it was 0.783; with Metformin + Lapatinib (first compound 100 µM) it was 0.811; with Metformin + Lapatinib (first compound 316.23 µM), 0.688; with Metformin + Lapatinib (first compound 1000 µM), 0.57; with Apatinib + Palbociclib (first compound 0.08 µM) it was 0.388. Moreover, the relative viability is 0.405 with Apatinib + Palbociclib (first compound 0.253 µM); 0.417 with Apatinib + Palbociclib (first compound 0.8 µM); 0.417 with Apatinib + Palbociclib (first compound 2.53 µM); 0.356 with Apatinib + Palbociclib (first compound 8 µM); 0.973 in the test with Apatinib + Luminespib (first compound 0.08 µM); 0.873 in the test with Apatinib + Luminespib (first compound 0.253 µM). Further, the relative viability amounted to 0.898 with Apatinib + Luminespib (first compound 0.8 µM); 0.95 in the test with Apatinib + Luminespib (first compound 2.53 µM); 0.865 with Apatinib + Luminespib (first compound 8 µM); 0.279 in the test with Apatinib + Phenformin (first compound 0.08 µM); 0.273 in the test with Apatinib + Phenformin (first compound 0.253 µM); 0.273 with Apatinib + Phenformin (first compound 0.8 µM). Further, the relative viability was 0.263 with Apatinib + Phenformin (first compound 2.53 µM) and 0.277 in the test with Apatinib + Phenformin (first compound 8 µM).
Regarding NCI-H1793, the relative viability in the test with Metformin + Lapatinib (first compound 10 µM) worked out at 0.733; with Metformin + Lapatinib (first compound 31.62 µM), 0.773; in the test with Metformin + Lapatinib (first compound 100 µM), 0.902; in the test with Metformin + Lapatinib (first compound 316.23 µM), 0.73; with Metformin + Lapatinib (first compound 1000 µM) it was 0.759; with Apatinib + Palbociclib (first compound 0.08 µM), 0.35. Also, the relative viability in the test with Apatinib + Palbociclib (first compound 0.253 µM) is 0.284; with Apatinib + Palbociclib (first compound 0.8 µM), 0.349; with Apatinib + Palbociclib (first compound 2.53 µM) it was 0.264; with Apatinib + Palbociclib (first compound 8 µM) it was 0.27; with Apatinib + Luminespib (first compound 0.08 µM), 0.185; with Apatinib + Luminespib (first compound 0.253 µM), 0.183. Besides, the relative viability with Apatinib + Luminespib (first compound 0.8 µM) turned out to be 0.157; with Apatinib + Luminespib (first compound 2.53 µM), 0.172; with Apatinib + Luminespib (first compound 8 µM) it was 0.193; in the test with Apatinib + Phenformin (first compound 0.08 µM), 0.352; with Apatinib + Phenformin (first compound 0.253 µM), 0.318; with Apatinib + Phenformin (first compound 0.8 µM), 0.327. In addition, the relative viability was 0.224 in the test with Apatinib + Phenformin (first compound 2.53 µM) and 0.189 in the test with Apatinib + Phenformin (first compound 8 µM).
As for NCI-H358, the relative viability in the test with Metformin + Lapatinib (first compound 10 µM) worked out at 0.409; with Metformin + Lapatinib (first compound 31.62 µM), 0.671; with Metformin + Lapatinib (first compound 100 µM) it was 0.616; in the test with Metformin + Lapatinib (first compound 316.23 µM), 0.58; in the test with Metformin + Lapatinib (first compound 1000 µM), 0.602; with Apatinib + Palbociclib (first compound 0.08 µM), 0.137. Moreover, the relative viability was determined as 0.133 in the test with Apatinib + Palbociclib (first compound 0.253 µM); 0.123 in the test with Apatinib + Palbociclib (first compound 0.8 µM); 0.124 in the test with Apatinib + Palbociclib (first compound 2.53 µM); 0.123 with Apatinib + Palbociclib (first compound 8 µM); 0.246 with Apatinib + Luminespib (first compound 0.08 µM); 0.368 with Apatinib + Luminespib (first compound 0.253 µM). Moreover, the relative viability in the test with Apatinib + Luminespib (first compound 0.8 µM) came to 0.684; with Apatinib + Luminespib (first compound 2.53 µM) it was 0.382; in the test with Apatinib + Luminespib (first compound 8 µM) it was 0.236; in the test with Apatinib + Phenformin (first compound 0.08 µM) it was 0.316; in the test with Apatinib + Phenformin (first compound 0.253 µM), 0.353; in the test with Apatinib + Phenformin (first compound 0.8 µM) it was 0.321. Further, the relative viability with Apatinib + Phenformin (first compound 2.53 µM) turned out to be 0.377; in the test with Apatinib + Phenformin (first compound 8 µM), 0.383.
As to LCLC-97TM1, the relative viability with Metformin + Lapatinib (first compound 10 µM) came to 0.888; with Metformin + Lapatinib (first compound 31.62 µM) it was 1.36; with Metformin + Lapatinib (first compound 100 µM), 0.888; with Metformin + Lapatinib (first compound 316.23 µM), 1.08; in the test with Metformin + Lapatinib (first compound 1000 µM), 1.53; with Apatinib + Palbociclib (first compound 0.08 µM), 0.238. Moreover, the relative viability turned out to be 0.276 with Apatinib + Palbociclib (first compound 0.253 µM); 0.193 in the test with Apatinib + Palbociclib (first compound 0.8 µM); 0.204 in the test with Apatinib + Palbociclib (first compound 2.53 µM); 0.173 with Apatinib + Palbociclib (first compound 8 µM); 0.761 in the test with Apatinib + Luminespib (first compound 0.08 µM); 0.833 in the test with Apatinib + Luminespib (first compound 0.253 µM). The relative viability with Apatinib + Luminespib (first compound 0.8 µM) turned out to be 0.863; with Apatinib + Luminespib (first compound 2.53 µM), 0.605; with Apatinib + Luminespib (first compound 8 µM) it was 0.297; in the test with Apatinib + Phenformin (first compound 0.08 µM) it was 0.411; with Apatinib + Phenformin (first compound 0.253 µM), 0.409; in the test with Apatinib + Phenformin (first compound 0.8 µM) it was 0.424. For the same cell line, the relative viability in the test with Apatinib + Phenformin (first compound 2.53 µM) is 0.404; with Apatinib + Phenformin (first compound 8 µM), 0.37.
Turning to NCI-H1944, the relative viability in the test with Metformin + Lapatinib (first compound 10 µM) amounted to 0.686; with Metformin + Lapatinib (first compound 31.62 µM), 0.961; with Metformin + Lapatinib (first compound 100 µM) it was 0.931; with Metformin + Lapatinib (first compound 316.23 µM), 0.751; with Metformin + Lapatinib (first compound 1000 µM) it was 0.886; with Apatinib + Palbociclib (first compound 0.08 µM), 0.362. Besides, the relative viability with Apatinib + Palbociclib (first compound 0.253 µM) is 0.327; with Apatinib + Palbociclib (first compound 0.8 µM) it was 0.272; with Apatinib + Palbociclib (first compound 2.53 µM) it was 0.325; with Apatinib + Palbociclib (first compound 8 µM) it was 0.255; in the test with Apatinib + Luminespib (first compound 0.08 µM), 0.701; with Apatinib + Luminespib (first compound 0.253 µM) it was 0.773. For the same cell line, the relative viability with Apatinib + Luminespib (first compound 0.8 µM) amounted to 0.667; with Apatinib + Luminespib (first compound 2.53 µM), 0.644; with Apatinib + Luminespib (first compound 8 µM) it was 0.494; with Apatinib + Phenformin (first compound 0.08 µM) it was 0.209; with Apatinib + Phenformin (first compound 0.253 µM), 0.207; with Apatinib + Phenformin (first compound 0.8 µM) it was 0.179. Also, the relative viability with Apatinib + Phenformin (first compound 2.53 µM) came to 0.18; in the test with Apatinib + Phenformin (first compound 8 µM), 0.159.
On to 201T, for which the relative viability in the test with Metformin + Lapatinib (first compound 31.62 µM) is 1.08; in the test with Metformin + Lapatinib (first compound 100 µM) it was 1.07; with Metformin + Lapatinib (first compound 316.23 µM) it was 0.989; with Metformin + Lapatinib (first compound 1000 µM), 1; with Apatinib + Palbociclib (first compound 0.08 µM), 0.366; with Apatinib + Palbociclib (first compound 0.253 µM), 0.362. Moreover, the relative viability stood at 0.354 with Apatinib + Palbociclib (first compound 0.8 µM); 0.381 with Apatinib + Palbociclib (first compound 2.53 µM); 0.292 in the test with Apatinib + Palbociclib (first compound 8 µM); 0.983 with Apatinib + Luminespib (first compound 0.08 µM); 1.02 with Apatinib + Luminespib (first compound 0.253 µM); 1.12 in the test with Apatinib + Luminespib (first compound 0.8 µM). For the same cell line, the relative viability was 1 in the test with Apatinib + Luminespib (first compound 2.53 µM); 0.855 with Apatinib + Luminespib (first compound 8 µM); 0.481 with Apatinib + Phenformin (first compound 0.08 µM); 0.448 in the test with Apatinib + Phenformin (first compound 0.253 µM); 0.413 with Apatinib + Phenformin (first compound 0.8 µM); 0.33 with Apatinib + Phenformin (first compound 2.53 µM). Also, the relative viability with Apatinib + Phenformin (first compound 8 µM) was 0.405.
As for CAL-12T, the relative viability with Metformin + Lapatinib (first compound 10 µM) was determined as 0.645; in the test with Metformin + Lapatinib (first compound 31.62 µM) it was 0.801; in the test with Metformin + Lapatinib (first compound 100 µM) it was 0.794; with Metformin + Lapatinib (first compound 316.23 µM) it was 0.618; with Metformin + Lapatinib (first compound 1000 µM), 0.736; in the test with Apatinib + Palbociclib (first compound 0.08 µM), 0.448. In addition, the relative viability with Apatinib + Palbociclib (first compound 0.253 µM) came to 0.56; with Apatinib + Palbociclib (first compound 0.8 µM), 0.465; in the test with Apatinib + Palbociclib (first compound 2.53 µM) it was 0.485; in the test with Apatinib + Palbociclib (first compound 8 µM) it was 0.367; with Apatinib + Luminespib (first compound 0.08 µM), 0.565; in the test with Apatinib + Luminespib (first compound 0.253 µM), 0.315. For the same cell line, the relative viability with Apatinib + Luminespib (first compound 0.8 µM) is 0.261; in the test with Apatinib + Luminespib (first compound 2.53 µM), 0.882; with Apatinib + Luminespib (first compound 8 µM), 0.661; with Apatinib + Phenformin (first compound 0.08 µM), 0.636; with Apatinib + Phenformin (first compound 0.253 µM), 0.638; with Apatinib + Phenformin (first compound 0.8 µM), 0.565. The relative viability amounted to 0.542 in the test with Apatinib + Phenformin (first compound 2.53 µM) and 0.467 with Apatinib + Phenformin (first compound 8 µM).
